{
  "source": "patent US20100254996A1",
  "about": "“SYNERGISTIC TREATMENT OF CELLS THAT EXPRESS EPHA2 AND ERBB2” (MEDIMMUNE, LLC, priority 2007, published 2010)",
  "target": "T1, ErbB2 (Homo sapiens, UniProt P04626)",
  "T1 construct": "expressed in transfected cells; host or cells: MCF10A human mammary epithelial cells stably expressing HER2 (MCF10A.HER2; Ueda et al., 2004)",
  "T1 sequence (P04626 23-1255)": "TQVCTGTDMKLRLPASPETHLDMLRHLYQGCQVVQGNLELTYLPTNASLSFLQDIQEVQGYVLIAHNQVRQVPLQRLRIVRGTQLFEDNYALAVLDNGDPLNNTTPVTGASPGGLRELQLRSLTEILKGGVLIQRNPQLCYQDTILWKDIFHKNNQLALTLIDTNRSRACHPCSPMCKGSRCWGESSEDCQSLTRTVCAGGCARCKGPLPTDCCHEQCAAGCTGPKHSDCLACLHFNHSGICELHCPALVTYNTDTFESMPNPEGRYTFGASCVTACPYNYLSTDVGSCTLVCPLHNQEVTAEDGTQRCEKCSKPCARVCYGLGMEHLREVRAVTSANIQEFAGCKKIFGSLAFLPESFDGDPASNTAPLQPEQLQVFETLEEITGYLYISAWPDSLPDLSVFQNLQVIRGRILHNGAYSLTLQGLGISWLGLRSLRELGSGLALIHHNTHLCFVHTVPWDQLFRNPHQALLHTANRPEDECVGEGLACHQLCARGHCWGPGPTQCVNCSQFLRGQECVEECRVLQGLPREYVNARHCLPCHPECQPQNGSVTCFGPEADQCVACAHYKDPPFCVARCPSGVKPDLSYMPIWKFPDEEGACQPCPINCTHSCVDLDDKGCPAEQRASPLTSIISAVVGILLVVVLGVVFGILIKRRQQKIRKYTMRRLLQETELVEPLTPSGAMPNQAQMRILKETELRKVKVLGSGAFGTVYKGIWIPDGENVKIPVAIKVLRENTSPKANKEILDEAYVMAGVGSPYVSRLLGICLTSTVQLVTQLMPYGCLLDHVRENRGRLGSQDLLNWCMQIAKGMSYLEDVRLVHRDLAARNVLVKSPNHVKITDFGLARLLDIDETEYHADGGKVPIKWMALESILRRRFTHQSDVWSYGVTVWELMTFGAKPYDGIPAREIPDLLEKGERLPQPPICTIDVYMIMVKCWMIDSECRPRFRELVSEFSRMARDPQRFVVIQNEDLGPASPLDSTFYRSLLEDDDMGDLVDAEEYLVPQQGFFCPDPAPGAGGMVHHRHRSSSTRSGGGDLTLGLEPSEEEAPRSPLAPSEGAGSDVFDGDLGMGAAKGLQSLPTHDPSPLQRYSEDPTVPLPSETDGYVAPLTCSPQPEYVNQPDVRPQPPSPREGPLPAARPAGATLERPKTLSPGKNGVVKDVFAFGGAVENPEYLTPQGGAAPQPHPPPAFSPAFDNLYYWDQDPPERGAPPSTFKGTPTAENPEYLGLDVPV",
  "experiment": "EphA2 and ErbB2 phosphorylation in MCF10A cells overexpressing HER2 after ErbB2 kinase inhibitor (immunoprecipitation/immunoblot)",
  "type": "cell-based",
  "conditions": "10 mg/ml AG825 for 24 or 48 hours",
  "procedure": "For Ras and Rho/Rac pulldown assays, tumor tissue was collected, weighed, mechanically homogenized in phosphate buffered saline (PBS) pelleted, and resuspended in manufacturer recommended assay buffer (Upstate Biotechnology). Approximately […] tumor lysate was used per assay. Ras assays were performed using Raf-1 Ras binding domain-GST assay reagent (Upstate Biotechnology) as per manufacturer's protocol. Rho assays were performed using Rhotekin binding domain-GST reagents as previously described (Fang et al., 2005). For some co-immunoprecipitation assays, COST cells were co-transfected with […] each of myc-tagged erbB2 (pcDNA3-erbB2) and ephA2 (pcDNA3-EphA2) using Lipofectamine 2000 (Invitrogen). Cells were lysed in 1% NP-40 Buffer (10 mM Tris-HCl pH 7.5, 150 mM NaCl, 2 mM EDTA, 1% NP-40 plus 50 mM protease inhibitors). Lysates were used for immunoprecipitation with an anti-myc (Sigma-Aldrich) and anti-EphA2 antibodies (Santa Cruz, sc-924) antibodies. Immune complexes were resolved on SDS-PAGE and western blotted using anti-EphA2 and anti-myc antibodies. EphA2 was immunoprecipitated from MMTV-Neu cells, followed by treatment of half the samples with the 1 mM of the cross-linking agent DTSSP. Immunoprecipitates were subjected to western blot analysis using anti-ErbB2 (Neomarkers, 1:2000). EphA2 and ErbB2 were immunoprecipiated from MCF10A and MCF10A.HER2 cells as described above. […]",
  "data": [
    {"smiles": "COc1cc(/C=C(\\C#N)C(N)=O)cc(CSc2nc3ccccc3s2)c1O", "note": "[AG825]", "values": [
      {"measurement": "EphA2 phosphorylation", "value": "reduced"},
      {"measurement": "ErbB2 phosphorylation", "value": "reduced"}
    ]}
  ]
}
